From the SangsterLogP compilation

Assay: method code SF-AS, from DOI: 10.1016/j.jct.2013.01.022
Conditions: pH 7.4

In order of falling logD:
1. Cc1ccc(NC2=NCCC3(CCCCC3)S2)cc1Cl  2.54
2. FC(F)(F)c1ccc(NC2=NCCC3(CCCCC3)S2)cc1  2.45
3. Brc1ccc(NC2=NCCC3(CCCCC3)S2)cc1  2.43
4. Clc1ccc(NC2=NCCC3(CCCCC3)S2)cc1  2.4
5. CCc1ccc(NC2=NCCC3(CCCCC3)S2)cc1  2.22
6. CC(=O)c1ccc(NC2=NCCC3(CCCCC3)S2)cc1  1.89
7. Cc1ccc(NC2=NCCC3(CCCCC3)S2)cc1  1.88
8. CC(C)c1ccc(NC2=NCCC3(CCCCC3)S2)cc1  1.75
9. O=C(NC1=NCCC2(CCCCC2)S1)c1ccccc1  1.55
10. c1ccc(NC2=NCCC3(CCCCC3)S2)cc1  1.27
